Assay results reported in US10786582B2, “Gd(III)-dithiolane gold nanoparticle conjugates” (Northwestern University, priority 2015, dated 2020).

Experiment: r1 relaxivity of dt-Gd(III) nanoconjugates, Bruker minispec 60 MHz
Type: physicochemical
Settings: per Gd(III); 60 MHz (1.41 T), 37° C., water plus 0.01% tween 20
Experimental: A stock solution of backfilled dt-Gd(III) SNA conjugates was made (700 uL). This stock was serially diluted four times for a total of five solutions. Solutions were heated to 37° C. and two hundred μL of each concentration was placed into a Bruker minispec mq60 NMR spectrometer (60 MHz) for measurement of T1 relaxation time. Data were collected using an inversion recovery pulse sequence using 4 averages, a 15 s repetition time and 10 data points. The remaining volumes of each solution were utilized for ICP analysis of [Gd(III)]. The inverse of the longitudinal relaxation time (1/T1, s−1) was plotted versus the Gd(III) concentration (mM). […] Relaxivities of DNA-Gd@spheres, Gd(III)-DNA and complex 5 were collected by the analogous procedure (Table 3, FIG. 7).

r1 relaxivity ionic: 4.9 mM⁻¹ s⁻¹
Substance: 2,2′2″(10(3-(((1-(5-(1,2-dithiolan-3-yl)pentyl)-1,2,3-triazol-4-yl)methyl)amino)-3-oxopropyl)-1,4,7,10-tetraazacyclododecyl-gadolinium(III) complex [dt-Gd(III)]
